The values below come from PubChem BioAssay (NCI).

Common to all, as to assay: NCI anticancer screen, dose series, 48 h
Test [1] concerns SK-OV-3 ovarian.
The test system of test [2] is HOP-92 NSCLC.
The test system of test [3] is TK-10 renal.
In test [4] the test system is OVCAR-5 ovarian.
Test [5] concerns SF-268 CNS.
Test [6] deals with HCT-15 colon.
Test [7] relates to OVCAR-8 ovarian.
For test [8], the system named is NCI-H226 lung.
Test [9] deals with NCI-H522 lung.
The subject of test [10] is HCT-116 colon.
The subject of test [11] is SR leukemia.
Test [12] concerns SK-MEL-28 melanoma.

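Each compound was tested at five concentrations against cells in 96-well plates for 48 hours. Definition used: TGI = concentration required for complete inhibition of growth.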 Where a SMILES comes first, the peptide text is derived from it. [ ]: non-standard residue; d: D form. pGlu = O=C1CC[CH](C(=O)O)N1; Thz = O=C(O)[CH]1CSCN1 A value given as a limit tells only on which side of the number the result lay.

`O=c1[nH]c(NCc2cccnc2)nc2nc[nH]c12`: the TGI in [1], in test [2], in test [3], in test [4], in [5] and in test [6] was > 100 µM throughout. Besides, the TGI in test [7], in test [8], in [9] and in test [10] was > 100 µM throughout.
Turning to `CC1CCN(C(C)C)P(=S)(Cc2ccccc2)O1` (stereo not given), the TGI in test [11], in test [1], in test [3], in test [4], in test [5] and in [6] was > 100 µM each time. In addition, the TGI was > 100 µM in test [7], 40 µM in test [12], > 100 µM in [8] and > 100 µM in [10].
As to `O=c1onc2n1-c1ccc(Cl)cc1C(=S)N1CSCC21` (stereo not given), the TGI in [11] is 48.1 µM; in test [1], 49.4 µM; in test [3] it was > 100 µM; in test [4], > 100 µM; in test [5] it was 69.7 µM; in test [6], 95.3 µM. The TGI is 39.8 µM in [7]; > 100 µM in test [12]; 83.1 µM in test [8]; 62.9 µM in [9]; 95.7 µM in [10].
As for `CCCCSC1=N/C(=C\c2ccccc2O)C(=O)N1`, the TGI in test [1], in test [2], in [3], in test [4], in [5] and in test [6] was > 100 µM each time. In addition, the TGI in test [7], in test [12], in [8], in test [9] and in [10] was > 100 µM throughout.
`CCOC(=O)CNC(=O)C(CCC(=O)N(C)O)NC(=O)CCC(N)C(=O)O` (stereo not given): the TGI in test [1], in test [2], in test [3], in test [4], in [5] and in [6] was > 100 µM each time. Also, the TGI in [7], in [12], in test [8], in test [9] and in [10] was > 100 µM in each case.
In the case of `COc1ccc(C(=O)/C=C/c2ccc(OCCCCCCCCCCOc3ccc(/C=C/C(=O)c4ccc(OC)cc4)cc3)cc2)cc1`, the TGI in [11], in [1], in [3], in test [4], in test [5] and in [6] was > 100 µM each time. The TGI in test [7], in test [12], in [8] and in [10] was > 100 µM throughout.
Turning to `CC1C(C)(C)C23CC12C1(OCCO1)C3Br` (stereo not given), the TGI in [11], in [1], in test [3], in test [4], in test [5] and in test [6] was > 100 µM each time. Moreover, the TGI in test [7], in test [12], in test [8] and in [10] was > 100 µM throughout.
As to `COC(=O)C1=CO[C@@H](C)[C@@H]2Cn3ccc4c5ccccc5nc-4c3C[C@H]12`, the TGI in [1], in test [2], in test [3], in test [4], in test [5] and in test [6] was > 100 µM throughout. Moreover, the TGI in test [7], in test [12], in test [8], in test [9] and in test [10] was > 100 µM throughout.
For the compound `Cc1cc(N(CCC#N)CCC#N)ccc1/C(N=Nc1ccc([N+](=O)[O-])cc1)=N\NC(=O)c1cc(Cl)ccc1O`, the TGI in [11] was > 100 µM; in test [1], > 100 µM; in test [3], > 100 µM; in test [4] it was > 100 µM; in test [5] it was 91.3 µM; in test [6] it was > 100 µM. For the same compound, the TGI was found to be 63 µM in test [7], 93 µM in test [8], 23.9 µM in [9] and 88.1 µM in test [10].
With `O=C1CCC(C(=O)N2CSCC2C(=O)O)N1` (stereo not given) ([pGlu]-[Thz]-OH; configuration not given here), the TGI in test [11], in test [1], in [3], in [4], in test [5] and in test [6] was > 100 µM each time. For the same compound, the TGI in test [7], in test [12], in test [8] and in [9] was > 100 µM in each case.
As to `Cc1nc2c(c(N3CCN(C)CC3)n1)Cc1ccccc1-2`, the TGI in [1] was > 100 µM; in test [2] it was > 100 µM; in test [3], 88.1 µM; in test [4], > 100 µM; in test [5], > 100 µM; in [6] it was > 100 µM. Moreover, the TGI in [7] was > 100 µM; in test [8], > 100 µM; in [9], 56.4 µM; in test [10] it was > 100 µM.
For `CN(O)C(=O)CCC(NC(=O)CCC(N)C(=O)O)C(=O)NCC(=O)O` (stereo not given), the TGI in test [1], in test [2], in [3], in [4], in test [5] and in test [6] was > 100 µM each time. Moreover, the TGI in [7], in test [12], in [8], in test [9] and in [10] was > 100 µM throughout.
For `S=C(NCc1ccccc1)Nc1sc(=NCc2ccccc2)nc2sc3c(c12)CCN(N1CCc2c(sc4nc(=NCc5ccccc5)sc(NC(=S)NCc5ccccc5)c24)C1)C3`, the TGI in test [1] is 99.6 µM; in test [2], > 100 µM; in [3], > 90.3 µM; in test [4], > 85.2 µM; in test [5] it was > 100 µM; in test [6], > 66.7 µM. For the same compound, the TGI in test [7] is > 100 µM; in test [12] it was > 79 µM; in test [8] it was 99.7 µM; in test [9], > 100 µM; in test [10] it was > 54.2 µM.
With `O=C1CCCCCCC2=C1C(Sc1ccccc1)CC2` (stereo not given), the TGI in test [11] is 79.3 µM; in test [1], > 100 µM; in test [3] it was > 100 µM; in [5] it was 44 µM; in test [6], > 100 µM; in test [7], 54 µM. Further, the TGI in test [12] was 94.8 µM; in [8], > 100 µM; in test [9] it was 41.4 µM; in test [10] it was 67.8 µM.
Regarding `O=[N+]([O-])c1ccc(-c2csc(N=Nc3c(O)[nH]c4ccccc34)n2)cc1`, the TGI was > 100 µM in [1]; 74.5 µM in test [2]; 35.6 µM in test [3]; 45.4 µM in [4]; 30.1 µM in test [6]; 70 µM in test [7]. Further, the TGI in test [12], in test [8] and in test [10] was > 100 µM in each case.
Take `COc1ccc(N2C(=O)C3CC(c4ccc(Br)cc4)c4c([nH]c5ccccc45)C3C2=O)cc1` (stereo not given): the TGI in test [2] is 29.3 µM; in test [3] it was 20 µM; in test [4], 73.4 µM; in [5], 23.4 µM; in test [6], > 100 µM; in test [7], 5.96 µM. The TGI in test [12] is 28.5 µM; in [8], 77.2 µM; in test [10] it was 16.1 µM.
On to `O=P1(c2ccccc2)C(c2ccccc2)CCC1c1ccccc1` (stereo not given), for which the TGI in [1], in test [2], in test [3], in test [5], in test [6] and in test [7] was > 100 µM throughout. Moreover, the TGI in test [12], in test [8], in [9] and in test [10] was > 100 µM in each case.
Regarding `COC(=O)C1CCC(=O)N1C(c1ccc(OC)cc1)c1cc(OC)c(OC)c(OC)c1` (stereo not given), the TGI in [1], in test [2], in [3], in [4], in test [5] and in [6] was > 100 µM throughout. Also, the TGI is > 100 µM in [7], > 100 µM in test [12], 2.11 µM in test [8] and 0.212 µM in test [9].
On to `CCOC(=O)C(NC(=O)c1cccc(Cl)c1)(Nc1ccc(S(=O)(=O)Nc2cc(C)on2)cc1)C(F)(F)F` (stereo not given), for which the TGI in test [1], in [2], in [3], in test [4], in [5] and in test [6] was > 100 µM throughout. For the same compound, the TGI in [7], in test [12], in [8], in test [9] and in test [10] was > 100 µM throughout.
